Among the data in BindingDB's records for doi:10.1021/acsmedchemlett.8b00576 (Usona Institute, 2019) are IC50 values, retold here.

In general, IC50 refers to the concentration that gives 50% inhibition.

The test concerns the target GTPase KRas (Homo sapiens, UniProt P01116). The experiment in a line: Inhibition of GDP loaded biotin-labeled KRAS G12C mutant (unknown origin) assessed as reduction in guanine nucleotide exchange preincubated for 4 hrs followed by GST-RAF-RBD addition in presence of GTPgammaS by FRET assay.

Sequence of GTPase KRas (P01116 whole entry G12C): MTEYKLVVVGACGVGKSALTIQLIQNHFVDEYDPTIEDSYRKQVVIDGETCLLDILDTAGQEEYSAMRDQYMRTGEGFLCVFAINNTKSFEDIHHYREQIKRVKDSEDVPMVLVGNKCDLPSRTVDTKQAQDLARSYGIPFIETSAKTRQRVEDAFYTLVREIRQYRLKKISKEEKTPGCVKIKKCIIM

For `C=CC(=O)N1CCN2c3nc(N4CC(N(C)C)C4)nc4cc(-c5c(C)ccc6[nH]ncc56)c(Cl)c(c34)OC[C@@H]2C1`, the half-inhibitory concentration (IC50) is 21 nM.
